Consider 45 molecules from ChEMBL document CHEMBL1154499 (Bioorg Med Chem Lett, 2008).

Where only a bound is given, the exact number is not on record here.

The target of experiment [1] is T1, Transcriptional activator protein LuxR (Vibrio fischeri (strain ATCC 700601 / ES114), UniProt P35327).
T1 sequence (P35327 whole entry): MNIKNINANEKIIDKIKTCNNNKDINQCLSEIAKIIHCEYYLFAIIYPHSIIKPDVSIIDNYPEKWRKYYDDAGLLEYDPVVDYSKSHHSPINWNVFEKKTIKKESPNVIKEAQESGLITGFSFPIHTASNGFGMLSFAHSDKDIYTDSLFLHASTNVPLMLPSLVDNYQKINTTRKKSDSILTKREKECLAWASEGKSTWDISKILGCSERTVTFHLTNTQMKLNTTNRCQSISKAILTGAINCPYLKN
The experiment is described as follows: (§1) Antagonist activity at Vibrio fischeri ES114 LuxR receptor assessed as inhibition of OHHL-induced response by luciferase reporter gene assay. The class given is functional, Aliivibrio fischeri. In general terms: A reporter such as luciferase makes a cellular process visible.

Experiment [2] deals with T2, Transcriptional activator protein LuxR (Vibrio fischeri (strain ATCC 700601 / ES114)) (UniProt P35327).
T2 sequence (whole entry): T1 sequence (P35327 whole entry)
The description is as §1. Type of experiment: functional. The note with it: Aliivibrio fischeri, concentration not given here.

For experiment [3], the system named is Escherichia coli. The experiment is described as follows: Agonist activity at Escherichia coli DH5alpha LasR receptor at 100 uM by beta-galctosidase reporter gene assay relative to OdDHL. Type of experiment: functional.
Experiment [4] in a line: Agonist activity at Escherichia coli DH5alpha LasR receptor by beta-galctosidase reporter gene assay. The class given is functional.
The target in experiment [5] is T3, Transcriptional activator protein TraR (Agrobacterium tumefaciens, UniProt P33905).
T3 sequence (P33905 whole entry): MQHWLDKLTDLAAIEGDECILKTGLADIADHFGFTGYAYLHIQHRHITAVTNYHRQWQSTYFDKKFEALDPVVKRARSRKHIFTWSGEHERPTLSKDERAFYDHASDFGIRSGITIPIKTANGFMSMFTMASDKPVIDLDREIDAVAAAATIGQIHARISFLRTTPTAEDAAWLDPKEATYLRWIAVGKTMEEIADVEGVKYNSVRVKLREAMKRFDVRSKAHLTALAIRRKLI
The experiment is described as follows: Antagonist activity at Agrobacterium tumefaciens WCF47 TraR receptor assessed as inhibition of OOHL-induced response by beta-galctosidase reporter gene assay.

Experiment [6] can be described thus: (§2) Antagonist activity at Escherichia coli DH5alpha LasR receptor assessed as inhibition of OdDHL-induced response by beta-galctosidase reporter gene assay. Type of experiment: functional.
Experiment [7] has as its system Escherichia coli. The experiment is described as §2. As to conditions: dose or concentration not given here. The class given is functional.
Experiment [8] has as its target T2, Transcriptional activator protein LuxR (Vibrio fischeri (strain ATCC 700601 / ES114)). The experiment in a line: Agonist activity at Vibrio fischeri ES114 LuxR receptor at 100 uM by luciferase reporter gene assay relative to OHHL. As to conditions: Aliivibrio fischeri. Type of experiment: functional.

What is called IC50 is the concentration that gives 50% inhibition. As a reminder, the inhibition is the change of the read-out against control, counted positive when it falls. For `Cc1cccc(CC(=O)N[C@H]2CCOC2=O)c1`, in experiment [1], the IC50 turned out to be 2000 nM. In experiment [2], the inhibition is 91%.

The term EC50 denotes the concentration giving half of the maximal effect. A low value points to a more potent agent. `O=C(COc1ccc(OC(F)(F)F)cc1)N[C@H]1CCOC1=O`: the Activity with Escherichia coli [3] was 30%. In experiment [4], this molecule displayed an EC50 of 6300 nM.

Regarding `CSc1ccc(CC(=O)N[C@H]2CCOC2=O)cc1`, the results for the IC50 in experiment [5] and in experiment [1] were 8400 nM and 2100 nM, respectively.

For the molecule `O=C(COc1ccc(I)cc1)N[C@H]1CCOC1=O`, the values for the IC50 in experiment [6], in experiment [5] and in experiment [1] were 2000 nM, 440 nM and 1900 nM, respectively. Also, the inhibition with Escherichia coli [7] is 63%. In turn, `CCCC(=O)CC(=O)N[C@H]1CCOC1=O` displayed an EC50 in experiment [4] of over 10000 nM. As to `O=C(Cc1ccc([N+](=O)[O-])cc1)N[C@H]1CCOC1=O`, the IC50 in experiment [5] is 2250 nM; in experiment [1], 960 nM. Regarding `COc1cccc(CC(=O)N[C@H]2CCOC2=O)c1`, the IC50 in experiment [1] was found to be 2500 nM. Also, in experiment [2], the inhibition stood at 85%.

`O=C(Cc1ccc(Cl)c(Cl)c1)N[C@H]1CCOC1=O`: the IC50 in experiment [5] was determined as 2400 nM. The same measure, in the same setting: the result for `Cc1ccc(OCC(=O)N[C@H]2CCOC2=O)cc1` reads 1800 nM.

`O=C(CCc1cccc(C(F)(F)F)c1)N[C@H]1CCOC1=O`: the IC50 in experiment [1] amounted to 500 nM. For the molecule `Cc1cccc(OCC(=O)N[C@H]2CCOC2=O)c1`, the IC50 was found to be 7800 nM in experiment [6] and 1100 nM in experiment [5].

Consider `O=C(CCc1ccc2c(c1)OCO2)N[C@H]1CCOC1=O`, for which the IC50 in experiment [6] came to 3400 nM. Take `O=C(CCc1ccc([N+](=O)[O-])cc1)N[C@H]1CCOC1=O`: the IC50 in experiment [6] was determined as 3000 nM; in experiment [5], 1600 nM; in experiment [1], 990 nM. Moreover, the inhibition in the experiment on Escherichia coli [7] amounted to 67%.

With `Cc1ccc(CCC(=O)N[C@H]2CCOC2=O)cc1`, the values for the IC50 in experiment [6] and in experiment [1] were 4300 nM and 2200 nM, respectively. On to `COc1ccc(OCC(=O)N[C@H]2CCOC2=O)cc1`, for which, in experiment [5], the IC50 is 4300 nM. For the molecule `O=C(CCc1ccc(I)cc1)N[C@H]1CCOC1=O`, the IC50 in experiment [5] worked out at 2100 nM; in experiment [1], 630 nM. The matching figures for `CSc1ccc(CCC(=O)N[C@H]2CCOC2=O)cc1`: 1100 nM and 1700 nM. `CCCCCC(=O)CC(=O)N[C@H]1CCOC1=O` showed an EC50 in experiment [4] of over 10000 nM. For `O=C(COc1ccc(F)cc1)N[C@H]1CCOC1=O`, in experiment [5], the IC50 was determined as 2700 nM. As to `O=C(COc1ccc(Cl)cc1)N[C@H]1CCOC1=O`, the figures for the IC50 in experiment [6] and in experiment [5] were 4700 nM and 620 nM, respectively. Turning to `O=C(COc1ccc([N+](=O)[O-])cc1)N[C@H]1CCOC1=O`, in experiment [5], the IC50 was determined as 290 nM. Turning to `O=C(Cc1cccc2ccccc12)N[C@H]1CCOC1=O`, the IC50 in experiment [1] is 1300 nM.

Consider `O=C(CCc1ccc(F)cc1)N[C@H]1CCOC1=O`, for which the IC50 was 12000 nM in experiment [6] and 2700 nM in experiment [1].

For `O=C(Cc1cccc(C(F)(F)F)c1)N[C@H]1CCOC1=O`, the 50% inhibitory concentration (IC50) in experiment [1] is 1400 nM. As for `O=C(CCc1ccc(Br)cc1)N[C@H]1CCOC1=O`, in experiment [6], the IC50 is 340 nM. Consider `O=C(Cc1ccc(SC(F)(F)F)cc1)N[C@H]1CCOC1=O`, for which the IC50 was 4700 nM in experiment [5] and 1300 nM in experiment [1]. This molecule displayed an Activity with Escherichia coli [3] of 65%. Consider `O=C(CCc1cccc([N+](=O)[O-])c1)N[C@H]1CCOC1=O`, for which the IC50 came out at 3400 nM in experiment [6] and 880 nM in experiment [1]. Molecule `N#Cc1cccc(CC(=O)N[C@H]2CCOC2=O)c1` registered an Activity in experiment [8] of 75%. As for `O=C(COc1cccc([N+](=O)[O-])c1)N[C@H]1CCOC1=O`, the IC50 in experiment [1] stood at 2400 nM. For `COc1ccc(CCC(=O)N[C@H]2CCOC2=O)cc1`, in experiment [6], the IC50 was 6800 nM. For `O=C(CCc1ccc(Cl)cc1)N[C@H]1CCOC1=O`, the IC50 came to 2200 nM in experiment [6], 3300 nM in experiment [5] and 970 nM in experiment [1]. In the case of `O=C(CCc1cccc(I)c1)N[C@H]1CCOC1=O`, the values for the IC50 in experiment [6] and in experiment [1] were 1800 nM and 390 nM, respectively. Turning to `O=C(Cc1ccc(F)c(C(F)(F)F)c1)N[C@H]1CCOC1=O`, the IC50 in experiment [1] turned out to be 1000 nM. On to `O=C(COc1ccc(Br)cc1)N[C@H]1CCOC1=O`, for which the IC50 in experiment [6] was 2100 nM; in experiment [5] it was 510 nM; in experiment [1], 3000 nM. In the experiment on Escherichia coli [7], the inhibition was 67%. Take `O=C(Cc1ccc2ccccc2c1)N[C@H]1CCOC1=O`: the IC50 in experiment [5] is 4200 nM; in experiment [1] it was 940 nM. In experiment [4], `CCCCCCCCCC(=O)CC(=O)N[C@H]1CCOC1=O` displayed an EC50 of 10 nM. For the molecule `O=C(Cc1cccc([N+](=O)[O-])c1)N[C@H]1CCOC1=O`, the IC50 in experiment [6] stood at 610 nM. As for `CSc1cccc(CC(=O)N[C@H]2CCOC2=O)c1`, the IC50 in experiment [1] is 1500 nM. Turning to `O=C(CCc1ccc(C(F)(F)F)cc1)N[C@H]1CCOC1=O`, the IC50 was 210 nM in experiment [5] and 2200 nM in experiment [1]. For the same molecule, the EC50 in experiment [4] was over 10000 nM. As for `O=C(Cc1ccc(I)cc1)N[C@H]1CCOC1=O`, the IC50 in experiment [6] came out at 1720 nM; in experiment [5], 1250 nM. As for `O=C(Cc1cc(C(F)(F)F)cc(C(F)(F)F)c1)N[C@H]1CCOC1=O`, in experiment [8], the Activity amounted to 70%. This molecule also displayed an EC50 in experiment [4] of 6300 nM. For `Cc1cccc(CCC(=O)N[C@H]2CCOC2=O)c1`, the IC50 in experiment [6] worked out at 8900 nM; in experiment [1] it was 2100 nM. For `O=C(CCc1cccc(Br)c1)N[C@H]1CCOC1=O`, in that order: 3300 nM and 530 nM. Take `O=C(Cc1cccc(I)c1)N[C@H]1CCOC1=O`: in experiment [6], the IC50 was found to be 4630 nM.

Regarding `O=C(COc1ccc(C(F)(F)F)cc1)N[C@H]1CCOC1=O`, in experiment [5], the IC50 was determined as 1600 nM.
